Data published in PubChem BioAssay (NCI).
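The compound was tested at five concentrations on cells cultured in 96-well plates, with a 48-hour exposure period. GI50 marks 50% less growth. TGI: concentration producing complete growth inhibition.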

Assays:
Assay in all cases: growth of human tumour cells (NCI), 48 h
[1] = test system: NCI-H522 lung
[2] = test system: SF-268 CNS
[3] = test system: DU-145 prostate
[4] = test system: OVCAR-3 ovarian
[5] = test system: A498 renal
[6] = test system: SN12C renal
[7] = test system: ACHN renal
[8] = test system: BT-549 breast
[9] = test system: UACC-62 melanoma
[10] = test system: SF-295 CNS

| Structure (SMILES) | GI50 [1] [µM] | TGI [1] [µM] | GI50 [2] [µM] | TGI [2] [µM] | GI50 [3] [µM] | TGI [3] [µM] | GI50 [4] [µM] | TGI [4] [µM] | GI50 [5] [µM] | TGI [5] [µM] | GI50 [6] [µM] | TGI [6] [µM] | GI50 [7] [µM] | TGI [7] [µM] | GI50 [8] [µM] | TGI [8] [µM] | GI50 [9] [µM] | TGI [9] [µM] | GI50 [10] [µM] | TGI [10] [µM] |
| --- | --- | --- | --- | --- | --- | --- | --- | --- | --- | --- | --- | --- | --- | --- | --- | --- | --- | --- | --- | --- |
| C=C1C(=O)O[C@H]2[C@H]1CC/C(CNS(=O)(=O)c1ccc3ccccc3c1)=C\CC[C@@]1(C)O[C@@H]21 | 0.444 | 1.8 | 2.72 | 10.1 | 1.34 | 3.56 | 0.805 | 2.12 | 10.2 | 21.8 | 2.15 | 7.13 | 0.514 | 1.91 | 1.76 | 4.02 | 1.64 | 4.01 | 7.49 | 20.9 |
| CCOC(=O)c1cc2c(n1Cc1cc(OC)cc(OC)c1)-c1oncc1CCC2 | 0.0194 | 0.0682 | 0.243 | > 100 | 0.116 |  | 0.0274 | 0.0889 | 0.0469 | 0.295 | 0.252 | > 100 | 0.0674 | > 100 | 0.89 | > 100 | 0.0714 | > 100 | 0.0291 | 0.14 |
| C=C1C(=O)O[C@H]2[C@H]1CC/C(CNC(=O)/C=C/c1cccc(OC)c1)=C\CC[C@@]1(C)O[C@@H]21 | 0.435 | 1.77 | 2.29 | 6.69 | 1.19 | 2.49 | 1.1 | 2.45 | 1.82 | 5.85 | 1.53 | 4.34 | 1.14 | 2.67 | 1.57 | 3.66 | 1.43 | 2.92 | 5.54 | 19.3 |
| O=S1(=O)N(Cc2ccccc2)[C@@H](Cc2ccccc2)C2O[C@H]2[C@H](Cc2ccccc2)N1Cc1ccccc1 (some centres not stated) | 1.83 | > 7.5 | 6.08 | > 7.5 | > 7.5 | > 7.5 | 4.03 | > 7.5 | > 7.5 | > 7.5 | > 7.5 | > 7.5 | 5.88 | > 7.5 | 4.09 | > 7.5 | 6.75 | > 7.5 | 1.8 | > 7.5 |
| Cc1[nH]c(C(=O)Nc2ccc(C(=O)N3CCNCC3)cc2OC(C)C)c(Cl)c1Cl | 1.72 | 3.42 | 1.85 | 3.81 | 2.06 | 4.06 | 2.19 | 4.62 | 11.2 | 24.7 | 1.94 | 4.28 | 1.68 | 3.07 | 14.3 | 29 | 1.8 | 3.38 | 1.89 | 3.68 |
| C[N+](C)([O-])CCCNc1c2ccccc2nc2cccc([N+](=O)[O-])c12 |  | 0.67 |  | 8.14 |  | 1.49 |  | 5.65 |  | 0.545 |  | 1.43 |  | 3.74 |  | 2.91 |  | 0.491 |  | 15 |
| Nc1ccc(N=Nc2ccccc2)c(N)n1 | 22.9 | 86.2 | 16.8 | 72.9 | 25.2 | 81 | 20.2 | 67.9 | 12.9 | 39.8 | 30.4 | > 100 | 37.2 | > 100 | 16.6 | 46.1 | 32.6 | > 100 | 17 | 50.9 |
| CNC(=O)c1c(NC(=O)c2cccc(C(F)(F)F)c2)sc2c1CCC(=O)C2 | 0.075 | 0.549 | 0.486 | > 100 | 3.22 | > 100 | 0.448 | 2.04 | 1.67 | 5.71 | 0.361 | > 20.7 | 0.323 | 1.34 | 0.352 | 2.83 | 0.414 | 2.14 | 0.36 | 1.88 |
| Nc1ccc(-c2nc3ccccc3[nH]2)c(O)c1 | > 100 | > 100 | 27.6 | > 100 | 38.9 | > 100 | 40.4 | > 100 | 31.9 | 68.5 | 42.4 | > 100 | 24.3 | 82.9 | 50.9 | > 100 | 25.2 | 95.5 | 26.5 | 63.4 |
| COc1ccc(-c2nsc3c2NC(=O)CC3c2ccc3c(c2)OCO3)cc1 (configuration not stated) | 0.464 | 3.57 | 6.44 | > 100 | 2.78 | 53.1 | 0.874 | 10.4 | 1.05 | 7.05 | 2.55 | > 100 | 3.14 | > 100 | 2.54 | > 100 | 1.21 | > 100 | 1.92 | 25.9 |
| C[C@@H]1COCCN1c1nc(-c2cnc(N)cc2C(F)F)nc(N2[C@H](C)COC[C@@H]2C)n1 | 0.267 | 12.8 | 0.356 | 16.1 | 0.336 | 14.5 | 0.293 | 12.7 | 0.0507 | 0.345 | 0.302 | 15.9 | 0.265 | 11.8 | 0.144 | 1.75 | 0.116 | 2.74 | 0.116 | 1.69 |
| CCc1ccc(-c2ccc(=O)n(-c3ccc(S(N)(=O)=O)cc3)n2)cc1 | 0.182 | 4.18 | 9.06 | > 69.3 | 21.3 | > 100 | 0.957 | > 20.2 | 8.86 | > 61.4 | 9.88 | > 100 | > 32.4 | > 100 | 0.916 | 21.7 | 0.84 | > 100 | 0.992 | 29.4 |
| O=C(Nc1ncc(Cc2ccccc2)s1)c1ccc2c(c1)OCCCO2 | 1.03 | > 100 | 1.92 | > 100 | 2.3 | > 100 | 0.614 | > 100 | 0.282 | 3.03 | 2.12 | > 100 | 0.644 | > 100 | 1.93 | > 100 | 0.302 | > 100 | 0.396 | > 100 |
| COc1cc([C@@H]2c3cc4c(cc3C(Br)[C@H]3COC(=O)[C@H]23)OCO4)cc(OC)c1OC (some centres not stated) | 0.072 | 0.389 | 0.399 | > 100 | 0.252 | 0.646 | 0.213 | 0.559 | 0.0257 | 0.177 | 0.549 | > 100 | 0.241 | > 100 | 0.254 |  | 0.187 | > 100 | 0.0859 |  |
| CCCCCCCCCCCCCCCC(=O)OCC1OC(n2cnc3c(=S)nc(N)[nH]c32)C(OC(=O)CCCCCCCCCCCCCCC)C1OC(=O)CCCCCCCCCCCCCCC (configuration not stated) | 4.82 | > 47.4 | 7.9 | > 50 | 1.98 | > 50 | 6.16 | > 47.3 | > 25.1 | > 50 | 18.3 | > 50 | 11.8 | > 50 | > 50 | > 50 | 3.35 | > 21.5 | 1.63 | 24.4 |
| COc1ccc(Nc2ccnc(NCCNc3ccnc4cc(Cl)ccc34)n2)cc1 | 2.38 | 7.8 | 3.65 | 15.6 | 5.03 | 17.6 | 2.61 | 10.3 | 0.874 | 4.92 | 3.73 | 18.4 | 2.27 | 6.06 | 1.86 | 7.01 | 1.8 | 3.62 | 1.03 | 2.78 |
| C[C@]12CC/C(=N\N)C[C@@H]1CC[C@@H]1[C@@H]2CC[C@]2(C)/C(=N/N)CC[C@@H]12 | > 100 | > 100 | > 100 | > 100 | > 100 | > 100 | > 100 | > 100 | > 100 | > 100 | > 100 | > 100 | > 100 | > 100 | > 100 | > 100 | > 100 | > 100 | > 100 | > 100 |
| COc1cc2c(c(OC)c1OC)-c1ccc(NNC(=S)N(Cc3cccc(C[N+](Cc4cccc(CNC56CC7CC(CC(C7)C5)C6)c4)(Cc4cccc(CNC56CC7CC(CC(C7)C5)C6)c4)Cc4cccc(CN(C(=S)NNc5ccc6c(cc5=O)[C@@H](NC(C)=O)CCc5cc(OC)c(OC)c(OC)c5-6)C56CC7CC(CC(C7)C5)C6)c4)c3)C34CC5CC(CC(C5)C3)C4)c(=O)cc1[C@@H](NC(C)=O)CC2 (some centres not stated) | 0.699 | 1.88 | 1.37 | 6.54 | 2.46 | 7.1 | 1.66 | 6.53 | 1.07 | 3.28 | 2.23 | 6.9 | 3.68 | 7.99 | 1.55 | 5.89 | 1.61 | 6.38 | 1.53 | 5.92 |
| Cc1nc2cncc(C#Cc3cncc(C(=O)Nc4ccc(CN5CCN(C)CC5)c(C(F)(F)F)c4)c3)c2nc1C | 0.466 | 8.21 | 0.552 | 18.8 | 0.349 | 6.48 | 0.899 | 6.54 | 0.0756 | 0.772 | 0.275 | 17 | 0.183 | 2.53 | 1.72 | 7.8 | 0.24 | 1.47 | 2.13 | 22.2 |
| CCN(CC)CCOc1ccc(Nc2ncc3cc(-c4c(Cl)cccc4Cl)c(=O)n(CCOC)c3n2)cc1 | 0.134 | 1.8 | 0.145 | 1.29 | 0.217 | 2.8 | 0.483 | 2.96 | 0.0235 | 0.16 | 0.0237 | 5.37 | 0.0205 | 5.72 | 0.533 | 2.7 | 0.206 | 7.04 | 0.375 | 6.07 |
| OCc1cccc(-c2ccc3ncc(-c4nc(NC5CC5)ncc4F)n3c2)c1 | 0.316 | 2.34 | 0.275 | 0.801 | 0.287 | 1.83 | 0.27 | 1.09 | 0.152 | 0.367 | 0.281 | 1.57 | 0.134 | 1.24 | 0.23 | 0.811 | 0.248 | 0.698 | 0.334 | 1.59 |
| Cc1cc(=O)c2cc(N=Cc3ccc([N+](=O)[O-])o3)ccc2o1 |  | > 100 |  | > 100 |  | > 100 |  | > 100 |  | > 100 |  | > 100 |  | > 100 |  | > 100 |  | > 100 |  | > 100 |
| OCCCCC#Cc1ccccc1C#Cc1ccccc1F | 16.3 | 32.6 | 25.3 | 62.4 | 35.7 | > 100 | 19.7 | 43.6 | 26.9 | 82.5 | 18.1 | 40.4 | 25.5 | 53.6 | 21.7 | 52.7 | 16.5 | 32.6 | 21.6 | 42.7 |
| N#Cc1cccc(C(=O)c2cnn(-c3ccc(F)cc3)c2N)c1 | > 25 | > 25 | > 25 | > 25 | > 25 | > 25 | > 25 | > 25 | > 25 | > 25 | > 25 | > 25 | > 25 | > 25 | > 25 | > 25 | > 25 | > 25 | > 20.1 | > 25 |
